Experimental data as given in patent US10758534B2 (Vertex Pharmaceuticals Incorporated, priority 2014, dated 2020).

target: T1, F508del (Homo sapiens, UniProt P13569, DEL508-508); test: Protocol 2: FRET membrane potential optical assay (VIPR), identification of correction compounds; assay type: cell-based; conditions: Table 3; compounds of Table 1 as modulators of CFTR activity; protocol not stated
T1 construct: expressed in transfected cells
How it was run: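 Corrector readout: membrane-potential FRET (CC2-DMPE donor, DiSBAC2(3) acceptor) on VIPR II after Cl⁻-free gluconate bath with 10 μM forskolin and 20 μM genistein. Before this, F508del-expressing NIH3T3 cells were exposed to test compound for 16 h at 37 °C without serum; 27 °C incubation served as temperature-correction control.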

T1 sequence (P13569 with tags, fused parts or gaps DEL508-508): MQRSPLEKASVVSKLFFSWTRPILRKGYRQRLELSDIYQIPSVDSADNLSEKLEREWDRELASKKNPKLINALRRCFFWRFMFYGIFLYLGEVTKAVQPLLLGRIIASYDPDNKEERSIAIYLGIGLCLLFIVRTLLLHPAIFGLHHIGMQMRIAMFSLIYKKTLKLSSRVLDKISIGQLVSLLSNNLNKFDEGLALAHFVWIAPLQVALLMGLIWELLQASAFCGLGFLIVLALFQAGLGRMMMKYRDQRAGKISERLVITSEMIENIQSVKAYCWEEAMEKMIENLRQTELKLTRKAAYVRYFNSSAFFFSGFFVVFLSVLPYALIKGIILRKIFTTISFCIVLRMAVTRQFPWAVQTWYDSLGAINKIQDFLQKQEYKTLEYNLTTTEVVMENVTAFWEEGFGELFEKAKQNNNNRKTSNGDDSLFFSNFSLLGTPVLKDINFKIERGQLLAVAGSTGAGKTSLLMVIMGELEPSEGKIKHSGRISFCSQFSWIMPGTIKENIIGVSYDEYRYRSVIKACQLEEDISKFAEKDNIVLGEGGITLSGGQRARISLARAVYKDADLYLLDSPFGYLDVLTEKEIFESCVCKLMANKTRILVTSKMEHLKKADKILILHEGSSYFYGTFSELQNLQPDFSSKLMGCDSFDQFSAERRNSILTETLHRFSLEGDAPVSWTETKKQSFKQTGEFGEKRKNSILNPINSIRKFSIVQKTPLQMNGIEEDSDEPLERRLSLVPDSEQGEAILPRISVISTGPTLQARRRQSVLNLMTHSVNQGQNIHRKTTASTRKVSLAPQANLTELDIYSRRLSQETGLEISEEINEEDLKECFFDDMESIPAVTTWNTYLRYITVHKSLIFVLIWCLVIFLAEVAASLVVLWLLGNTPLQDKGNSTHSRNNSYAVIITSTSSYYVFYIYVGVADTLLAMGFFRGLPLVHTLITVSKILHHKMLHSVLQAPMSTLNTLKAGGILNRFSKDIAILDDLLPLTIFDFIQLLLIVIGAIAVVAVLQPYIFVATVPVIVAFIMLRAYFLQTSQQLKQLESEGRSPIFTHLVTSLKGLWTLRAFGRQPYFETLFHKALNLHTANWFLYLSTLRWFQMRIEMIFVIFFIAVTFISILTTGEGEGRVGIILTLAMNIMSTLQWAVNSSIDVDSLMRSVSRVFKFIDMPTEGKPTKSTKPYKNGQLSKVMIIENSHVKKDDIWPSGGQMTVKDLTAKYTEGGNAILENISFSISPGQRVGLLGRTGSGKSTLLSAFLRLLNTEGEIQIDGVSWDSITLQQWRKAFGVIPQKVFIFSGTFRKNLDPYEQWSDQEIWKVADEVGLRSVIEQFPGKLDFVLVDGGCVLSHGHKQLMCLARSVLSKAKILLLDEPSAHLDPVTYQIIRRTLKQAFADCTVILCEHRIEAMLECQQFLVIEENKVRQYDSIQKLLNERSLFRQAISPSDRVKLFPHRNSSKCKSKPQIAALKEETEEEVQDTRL

EC30	SMILES
+++ (“+++” means <3 uM)	Cc1cc(C)c(Cn2c(C(=O)NS(=O)(=O)c3ccccc3)cc3ccc(F)cc32)c(C)c1 [Compound 212, N-(benzenesulfonyl)-6-fluoro-1-[(2,4,6-trimethylphenyl)methyl]indole-2-carboxamide]
+++ (“+++” means <3 uM)	Cc1cc(C)c(CN2Cc3ccccc3CC2C(=O)NS(=O)(=O)c2cccc(N)c2)c(C)c1 (stereo not drawn) [Compound 213, N-(3-aminophenyl)sulfonyl-2-[(2,4,6-trimethylphenyl)methyl]-3,4-dihydro-1H-isoquinoline-3-carboxamide]
+++ (“+++” means <3 uM)	Cc1cc(C)c(Oc2nc(C(C)(C)C)ccc2C(=O)NS(=O)(=O)c2ccn[nH]2)c(C)c1 [Compound 214, 6-tert-butyl-N-(1H-pyrazol-5-ylsulfonyl)-2-(2,4,6-trimethylphenoxy)pyridine-3-carboxamide]
+++ (“+++” means <3 uM)	Cc1cc(C)c(Oc2nc3ccccc3cc2C(=O)NS(=O)(=O)c2ccccc2)c(C)c1 [Compound 215, N-(benzenesulfonyl)-2-(2,4,6-trimethylphenoxy)quinoline-3-carboxamide]
+++ (“+++” means <3 uM)	Cc1cc(C)c(Oc2nc(-c3ccc(C#N)cc3)ccc2C(=O)NS(=O)(=O)c2cccc(N)n2)c(C)c1 [Compound 216, N-[(6-amino-2-pyridyl)sulfonyl]-6-(4-cyanophenyl)-2-(2,4,6-trimethylphenoxy)pyridine-3-carboxamide]
+++ (“+++” means <3 uM)	COc1cc(S(=O)(=O)NC(=O)c2ccc(C(C)(C)C)nc2Oc2c(C)cc(C)cc2C)ccn1 [Compound 217, 6-tert-butyl-N-[(2-methoxy-4-pyridyl)sulfonyl]-2-(2,4,6-trimethylphenoxy)pyridine-3-carboxamide]
+++ (“+++” means <3 uM)	CC(Oc1nc(C(C)(C)C)ccc1C(=O)NS(=O)(=O)c1cccc(N)c1)c1ccccc1 (stereo not drawn) [Compound 219, N-(3-aminophenyl)sulfonyl-6-tert-butyl-2-(1-phenylethoxy)pyridine-3-carboxamide]
+++ (“+++” means <3 uM)	Cc1cccc(C)c1Cn1nc(-c2cccc(C(F)(F)F)c2)cc1C(=O)NS(=O)(=O)c1ccccc1 [Compound 220, N-(benzenesulfonyl)-2-[(2,6-dimethylphenyl)methyl]-5-[3-(trifluoromethyl)phenyl]pyrazole-3-carboxamide]
+++ (“+++” means <3 uM)	Cc1cc(C)c(Oc2nc(C(C)(C)C)ccc2C(=O)NS(=O)(=O)c2cccc(N)c2)c(C#N)c1 [Compound 221, N-(3-aminophenyl)sulfonyl-6-tert-butyl-2-(2-cyano-4,6-dimethyl-phenoxy)pyridine-3-carboxamide]
+++ (“+++” means <3 uM)	Cc1cc(C)c(Oc2nc(C(C)(C)C)ccc2C(=O)NS(=O)(=O)c2ccccn2)c(C)c1 [Compound 222, 6-tert-butyl-N-(2-pyridylsulfonyl)-2-(2,4,6-trimethylphenoxy)pyridine-3-carboxamide]
+++ (“+++” means <3 uM)	CC(C)(C)c1ccc(C(=O)NS(=O)(=O)c2cccc(N)c2)c(-c2ccc(Cl)cc2)n1 [Compound 223, N-(3-aminophenyl)sulfonyl-6-tert-butyl-2-(4-chlorophenyl)pyridine-3-carboxamide]
+++ (“+++” means <3 uM)	Cc1cc(C)c(Oc2cc(C(C)(C)C)ccc2C(=O)NS(=O)(=O)c2cccc(N)c2)c(C)c1 [Compound 224, N-(3-aminophenyl)sulfonyl-4-tert-butyl-2-(2,4,6-trimethylphenoxy)benzamide]
+++ (“+++” means <3 uM)	Cc1cccc(C)c1Cn1nc(-c2cccc(OC(F)(F)F)c2)cc1C(=O)NS(=O)(=O)c1ccccc1 [Compound 225, N-(benzenesulfonyl)-2-[(2,6-dimethylphenyl)methyl]-5-[3-(trifluoromethoxy)phenyl]pyrazole-3-carboxamide]
+++ (“+++” means <3 uM)	Cc1cc(C)c(Oc2nc(C(C)(C)C)ccc2C(=O)NS(=O)(=O)c2nc(N)ccc2F)c(C)c1 [Compound 226, N-[(6-Amino-3-fluoro-2-pyridyl)sulfonyl]-6-tert-butyl-2-(2,4,6-trimethylphenoxy)pyridine-3-carboxamide]
++ (“++” means between 3 uM and 10 uM)	Cc1cc(C)c(Cn2c(C(=O)NS(=O)(=O)c3ccncc3)cc3ccccc32)c(C)c1 [Compound 227, N-(4-pyridylsulfonyl)-1-[(2,4,6-trimethylphenyl)methyl]indole-2-carboxamide]
+++ (“+++” means <3 uM)	Cc1cc(C)c(Oc2nc(C(C)(C)C)ccc2C(=O)NS(=O)(=O)c2cccc(N)n2)c(C)c1 [Compound 228, N-[(6-amino-2-pyridyl)sulfonyl]-6-tert-butyl-2-(2,4,6-trimethylphenoxy)pyridine-3-carboxamide]
+++ (“+++” means <3 uM)	CC(C)(C)c1cccc(-c2nc(C(C)(C)C)ccc2C(=O)NS(=O)(=O)c2cccc(N)c2)c1 [Compound 229, N-(3-aminophenyl)sulfonyl-6-tert-butyl-2-(3-tert-butylphenyl)pyridine-3-carboxamide]

Further lines, the molecule ahead of its results:

SMILES	EC30
CC1CCN(c2nc3c(cc2C(=O)NS(=O)(=O)c2nccnc2N)CCCC3(C)C)CC1 [Compound 197, N-(3-aminopyrazin-2-yl)sulfonyl-8,8-dimethyl-2-(4-methyl-1-piperidyl)-6,7-dihydro-5H-quinoline-3-carboxamide]	+++ (“+++” means <3 uM)
COc1cc2cc(C(=O)NS(=O)(=O)c3ccccc3)n(Cc3c(C)cc(C)cc3C)c2cc1OC [Compound 198, N-(benzenesulfonyl)-5,6-dimethoxy-1-[(2,4,6-trimethylphenyl)methyl]indole-2-carboxamide]	+++ (“+++” means <3 uM)
Cc1ccc(-c2cc(C(=O)NS(=O)(=O)c3ccccc3)n(Cc3c(C)cccc3C)n2)cc1 [Compound 199, N-(benzenesulfonyl)-2-[(2,6-dimethylphenyl)methyl]-5-(p-tolyl)pyrazole-3-carboxamide]	+++ (“+++” means <3 uM)
COc1ccc(S(=O)(=O)NC(=O)C2c3ccccc3CN2Cc2c(C)cc(C)cc2C)cn1 (stereo not drawn) [Compound 200, N-[(6-methoxy-3-pyridyl)sulfonyl]-2-[(2,4,6-trimethylphenyl)methyl]isoindoline-1-carboxamide]	++ (“++” means between 3 uM and 10 uM)
Cc1cc(C)c(C(C)n2nc(C(C)(C)C)cc2C(=O)NS(=O)(=O)c2ccccc2)c(C)c1 (stereo not drawn) [Compound 201, N-(benzenesulfonyl)-5-tert-butyl-2-[1-(2,4,6-trimethylphenyl)ethyl]pyrazole-3-carboxamide]	+++ (“+++” means <3 uM)
Cc1cccc(-c2cc(C(=O)NS(=O)(=O)c3ccccc3)n(Cc3c(C)cccc3C)n2)c1 [Compound 202, N-(benzenesulfonyl)-2-[(2,6-dimethylphenyl)methyl]-5-(m-tolyl)pyrazole-3-carboxamide]	+++ (“+++” means <3 uM)
Cc1cc(C)c(Oc2nc(-c3ccccc3)ccc2C(=O)NS(=O)(=O)c2cccc(N)n2)c(C)c1 [Compound 203, N-[(6-amino-2-pyridyl)sulfonyl]-6-phenyl-2-(2,4,6-trimethylphenoxy)pyridine-3-carboxamide]	+++ (“+++” means <3 uM)
Cc1ccc(Oc2nc(C(C)(C)C)ccc2C(=O)NS(=O)(=O)c2cccc(N)n2)c(C)c1 [Compound 204, N-[(6-amino-2-pyridyl)sulfonyl]-6-tert-butyl-2-(2,4-dimethylphenoxy)pyridine-3-carboxamide]	+++ (“+++” means <3 uM)
Cc1cc(C)c(Oc2nc(C(C)(C)C)ccc2C(=O)NS(=O)(=O)c2cccc(C(=O)O)c2)c(C)c1 [Compound 205, 3-[[6-tert-butyl-2-(2,4,6-trimethylphenoxy)pyridine-3-carbonyl]sulfamoyl]benzoic acid]	++ (“++” means between 3 uM and 10 uM)
COc1ccc(S(=O)(=O)NC(=O)c2ccc(C(C)(C)C)nc2-c2ccc(C)cc2)cc1 [Compound 206, 6-tert-butyl-N-(4-methoxyphenyl)sulfonyl-2-(p-tolyl)pyridine-3-carboxamide]	+++ (“+++” means <3 uM)
Cc1cc(C)c(Oc2nc(-c3ccc(Cl)cc3F)ccc2C(=O)NS(=O)(=O)c2cccc(N)n2)c(C)c1 [Compound 207, N-[(6-amino-2-pyridyl)sulfonyl]-6-(4-chloro-2-fluoro-phenyl)-2-(2,4,6-trimethylphenoxy)pyridine-3-carboxamide]	+++ (“+++” means <3 uM)
COc1c(C)cccc1-c1cc(C(=O)NS(=O)(=O)c2cccc(N)c2)n(Cc2c(C)cc(C)cc2C)n1 [Compound 208, N-(3-aminophenyl)sulfonyl-5-(2-methoxy-3-methyl-phenyl)-2-[(2,4,6-trimethylphenyl)methyl]pyrazole-3-carboxamide]	+++ (“+++” means <3 uM)
Cc1cc(C)c(Cn2nc(-c3c(C)cccc3C)cc2C(=O)NS(=O)(=O)c2cccc(N)c2)c(C)c1 [Compound 209, N-(3-aminophenyl) sulfonyl-5-(2,6-dimethylphenyl)-2-[(2,4,6-trimethylphenyl)methyl]pyrazole-3-carboxamide]	+++ (“+++” means <3 uM)
Cc1cccc(C)c1Cn1nc(C(C)(C)C)cc1C(=O)NS(=O)(=O)c1cccc2c1ccn2C [Compound 210, 5-tert-butyl-2-[(2,6-dimethylphenyl)methyl]-N-(1-methylindol-4-yl)sulfonyl-pyrazole-3-carboxamide]	+++ (“+++” means <3 uM)
Cc1cccc(C)c1Cn1nc(C(C)(C)C)cc1C(=O)NS(=O)(=O)c1cccc2c1OCC2 [Compound 211, 5-tert-butyl-N-(2,3-dihydrobenzofuran-7-ylsulfonyl)-2-[(2,6-dimethylphenyl)methyl]pyrazole-3-carboxamide]	++ (“++” means between 3 uM and 10 uM)
COc1ncccc1S(=O)(=O)NC(=O)C1c2ccccc2CN1Cc1c(C)cc(C)cc1C (stereo not drawn) [Compound 218, N-[(2-methoxy-3-pyridyl)sulfonyl]-2-[(2,4,6-trimethylphenyl)methyl]isoindoline-1-carboxamide]	++ (“++” means between 3 uM and 10 uM)
